Source: patent publication US9284567B2, “Method for gene introduction into hordeum plant using agrobacterium, and method for production of transformed plant of hordeum plant” (JAPAN TOBACCO INC., priority 2010, dated 2016)

Columns and labels:
[1] = tested on: barley immature embryos; experiment: Callus formation from cocultured immature embryos; format: cell-based; conditions: 0.25 mg/L (1.13 μM) in 1/10 diluted MS coculture medium, no centrifugation or pressurization
[2] = tested on: scutellum of barley immature embryo; experiment: Gene introduction efficiency (GUS expression index) after coculture with Agrobacterium; format: cell-based, barley (variety: Golden Promise)
Procedure: Immature embryos (size: 1.5 to 2.0 mm) of barley (variety: Golden Promise) from which embryonic axes were removed were aseptically collected and were immersed in 1 mL of sterilized water in a 2-mL microtube. In order to enhance the gene introduction efficiency, the tube containing the immature embryos was heated in a water bath at 43° C. for 5 minutes. An Agrobacterium strain EHA101 having a hygromycin resistance gene (pIG121Hm) (Non-Patent Literature 2) was suspended in an MG/L liquid medium (Non-Patent Literature 28) containing 100 μM acetosyringone and was shake-cultured (180 rpm) at 28° C. overnight (about 20 hours) to prepare an inoculation source. The bacterial concentration was adjusted to an O.D. of 1.0 (660 nm). The inoculation source was added to the thermal-treated immature embryos, and a reduced pressure treatment was performed with a vacuum pump at 500 mbar for 10 minutes. The immature embryos were washed once with a callus induction liquid medium, CIMT (Tingay et al., 1997: Non-Patent Literature 5) not containing any plant growth regulator (hereinafter, antiauxins, cytokinins, and auxins are collectively referred to as plant growth regulators). The immature embryos inoculated with Agrobacterium were transplanted onto a barley coculture medium (1/10 diluted MS inorganic salts and MS vitamins, 10 g/L of glucose, 0.5 g/L of MES, 5 μM AgNO3, and 5 μM CuSO4, pH 5.8; and 8 g/L of agarose) containing 100 μM acetosyringone in such a manner that the scutellum side faces upward. The test was performed using two plant growth regulators in four test groups of the coculture medium. That is, the four test groups are a hormone-free test group not containing any plant growth regulator, a test group of 5 μM TIBA (antiauxin), a test group of 1.13 μM dicamba (auxin), and a test group of 11.3 μM dicamba (auxin).
Immature embryos cultured at 25° C. in the dark for 24 hours were transplanted in a CIMT resting medium (Tingay et al., 1997: Non-Patent Literature 5) containing 0.5 mg/L of 2,4-D and 1.25 mg/L of CuSO4.5H2O. The resting medium was added with 250 mg/L of carbenicillin and 100 mg/T, of cefotaxime for Agrobacterium eradication. […] The expression of the GUS gene in the scutellum region of each immature embryo was evaluated in seven grades: 87.5 (expressed in 75% or more of scutellum), 62.5 (expressed in 50% or more and less than 75% of scutellum), 37.5 (expressed in 25% or more and less than 50% of scutellum), 17.5 (expressed in 10% or more and less than 25% of scutellum), […] (expressed in 1% or more and less than 10% of scutellum), 0.5 (expressed in exceeding 0% and less than 1% of scutellum), and 0 (no expression), and the average value thereof was expressed by a numerical value as the GUS expression index. […]

[3] = tested on: barley immature embryos; experiment: Transformation efficiency per immature embryo (hygromycin-resistant and GUS-positive regenerated plants); format: cell-based, barley (variety: Golden Promise)
Procedure: The preparation of materials and the inoculation with Agrobacterium were performed as in Example 1. The thermal treatment was also similarly performed.
Test group (1): Immature embryos inoculated with Agrobacterium were placed on the coculture medium described in Harwood et al. (2008: Non-Patent Literature 11) in such a manner that the scutellum faces downward. The coculture was performed at 25° C. in the dark for 3 days. In this test group, the centrifugation treatment was not performed.
Test group (2): Isolated immature embryos were transferred in a 2-mL microtube containing 1 mL of sterilized water and were centrifuged at 25° C. at 15000 rpm (20000×g) for 10 minutes. Subsequently, coculture was performed as in test group (1).
Test group (3): Immature embryos cocultured as in test group (1) were transferred in a 2-mL microtube containing 1 mL of sterilized water and were centrifuged at 25° C. at 15000 rpm (20000×g) for 10 minutes.
Test group (4): Immature embryos inoculated with Agrobacterium were transferred onto a barley coculture medium (1/10 diluted MS inorganic salts and MS vitamins, 10 g/L of glucose, 5 μM TIBA, 0.5 g/L of MES, 5 μM AgNO3, and 5 μM CuSO4, pH 5.8; and 8 g/L of agarose) containing 100 μM acetosyringone in such a manner that the scutellum side faces upward. The immature embryos were cultured at 25° C. in the dark for 24 hours. In this test group, the centrifugation treatment was not performed.
Test group (5): Isolated immature embryos were transferred in a 2-mL microtube containing 1 mL of sterilized water and were centrifuged at 25° C. at 15000 rpm (20000×g) for 10 minutes. Subsequently, coculture was performed as in test group (4).
Test group (6): Immature embryos cocultured as in test group (4) were transferred in a 2-mL microtube containing 1 mL of sterilized water and were centrifuged at 25° C. at 15000 rpm (20000×g) for 10 minutes.
That is, test groups (1), (2), and (3) used a coculture medium containing an auxin, dicamba, and undiluted MS inorganic salts, whereas test groups (4), (5), and (6) used a coculture medium containing an antiauxin, TIBA, and 1/10 diluted MS inorganic salts. Test group (7) used a hormone-free coculture medium containing 1/10 diluted MS inorganic salts.
The immature embryos prepared in test groups (1) to (7) were each transplanted in a CIMT resting medium (Tingay et al., 1997: Non-Patent Literature 5) containing 0.5 mg/L of 2,4-D, but not containing any selective agents. The resting medium was added with 250 mg/L of carbenicillin and 100 mg/L of cefotaxime for Agrobacterium eradication. The immature embryos were cultured at 25° C. in the dark for 7 days and were each divided into four sections. The divided sections were transplanted in a CIMT resting medium (Tingay et al., 1997: Non-Patent Literature 5) containing 0.2 mg/L of 2,4-D and 5 μM CuSO4, but not containing any selective agent. After the resting culture at 25° C. in the dark for 10 days, each four-divided immature embryo section was further divided into three to six subsections (i.e., one immature embryo was divided into 12 to 24 sections). The divided subsections were placed on a CIMT selection medium (Tingay et al., 1997: Non-Patent Literature 5) containing 0.1 mg/L of 2,4-D, 1.5 μM CuSO4, and 75 mg/L of hygromycin and were cultured at 25° C. in the dark for 10 days. Subsequently, subsections having cell clump supposed to be hygromycin resistance were subcultured in a selection medium having the same composition and were cultured at 25° C. in the dark for 10 days.
One hygromycin resistance callus for each divided section was placed on a transition (regeneration preculture) medium (Harwood et al. (2008: Non-Patent Literature 11)) not containing hygromycin and was cultured at 25° C. in the dark for about 2 weeks.

[4] = tested on: barley immature embryos; experiment: Hygromycin resistance callus formation after secondary selection; format: cell-based, barley (variety: Golden Promise); conditions: Example 4, 5 μM TIBA in coculture medium
Procedure: The materials, the method of inoculation with Agrobacterium, the thermal treatment conditions, the coculture step, the centrifugation treatment conditions, and the resting step were the same as those in Example 3. The coculture medium contained an antiauxin: 5 μM TIBA. The scutellum was divided into four sections, and the resting step was further continued for 10 days. After the resting step, each divided scutellum section was further divided into 4 subsections (i.e., one immature embryo was divided into 16 sections). The divided subsections were transplanted in a CIMT selection medium (Tingay et al., 1997: Non-Patent Literature 5) containing 50 mg/L of hygromycin B and 1.25 mg/L of CuSO4.5H2O. The selection medium was added with 250 mg/L of carbenicillin for Agrobacterium eradication. Scutellum subsections were sorted by the original immature embryo and placed on the medium. After the culture at 25° C. in the dark for 2 weeks, only compact calli were selected by removing sponge-like calli containing a large amount of moisture. […] After the culture, hygromycin resistance compact calli propagated on the selection medium were counted. Note that even when a plurality of resistance calli were formed from scutellum subsections derived from a single immature embryo, only one of the resistance calli was counted as a hygromycin resistance callus for each immature embryo.

SMILES: O=C(O)COc1ccc(Cl)cc1Cl [2,4-D, 2,4-dichlorophenoxyacetic acid]
- callus formation from cocultured immature embryos [1]: almost no callus was formed
- gene introduction efficiency relative to hormone-free coculture medium ([2]; Example 5, FIG. 3, 1.13 μM in 1/10 diluted MS coculture medium): about one-sixth that of the hormone-free coculture medium
- gene introduction efficiency (GUS expression index) ([2]; Example 5, FIG. 3, 11.3 μM in 1/10 diluted MS coculture medium): lowest

SMILES: O=C(O)c1cc(I)cc(I)c1I [TIBA, 2,3,5-triiodobenzoic acid]
- transformation efficiency per immature embryo ([3]; test group 4: 5 μM TIBA, 1/10 diluted MS coculture medium, 24 hours, no centrifugation treatment): no transformant was obtained at all
- transformation efficiency per immature embryo ([3]; test group 5: 5 μM TIBA, 1/10 diluted MS coculture medium, centrifugation treatment before inoculation with Agrobacterium): 90%
- transformation efficiency per immature embryo ([3]; test group 6: 5 μM TIBA, 1/10 diluted MS coculture medium, centrifugation treatment after coculture): 100%
- frequency of hygromycin resistance callus formation from immature embryos ([4]; with centrifugation treatment after coculture, after secondary selection): 80%
- frequency of hygromycin resistance callus formation from immature embryos ([4]; without centrifugation treatment): no callus survived in the selection medium
- gene introduction efficiency (GUS expression index) ([2]; Example 1, FIG. 1, 5 μM in 1/10 diluted MS coculture medium, coculture 24 hours, versus plant growth regulator-free group): notably enhanced

SMILES: COc1c(Cl)ccc(Cl)c1C(=O)O [dicamba, 3,6-dichloro-2-methoxybenzoic acid]
- transformation efficiency per immature embryo ([3]; test group 1: conventional coculture medium with dicamba, undiluted MS, coculture 3 days, without centrifugation treatment): 30%
- transformation efficiency per immature embryo ([3]; test group 2: conventional coculture medium with dicamba, undiluted MS, centrifugation treatment before inoculation): no transformant was obtained at all
- transformation efficiency per immature embryo ([3]; test group 3: conventional coculture medium with dicamba, undiluted MS, centrifugation treatment after coculture): 20%
- gene introduction efficiency (GUS expression index) ([2]; Example 1, FIG. 1, 11.3 μM in 1/10 diluted MS coculture medium, coculture 24 hours): lowest
